Reference: patent US6284896A, “Abeo-ergoline derivatives as 5HT1A ligands” (Pharmacia & Upjohn S.p.A., priority 1994, dated 2001)
Where two headings read alike, the source gives them in different places.

How the values were obtained:
5-HT1A receptor = target: T1, 5-HT1A receptor (Rattus norvegicus, UniProt P19327); assay: Affinity for Serotonin 1A receptor, 3H-8-OH-DPAT binding test (rat hippocampus synaptosome membranes)
T1 construct: Freezed hippocampus dissected out from rats were homogenized; from tissue; host or cells: rat hippocampus, crude synaptosome membranes
T1 sequence (P19327 1-422): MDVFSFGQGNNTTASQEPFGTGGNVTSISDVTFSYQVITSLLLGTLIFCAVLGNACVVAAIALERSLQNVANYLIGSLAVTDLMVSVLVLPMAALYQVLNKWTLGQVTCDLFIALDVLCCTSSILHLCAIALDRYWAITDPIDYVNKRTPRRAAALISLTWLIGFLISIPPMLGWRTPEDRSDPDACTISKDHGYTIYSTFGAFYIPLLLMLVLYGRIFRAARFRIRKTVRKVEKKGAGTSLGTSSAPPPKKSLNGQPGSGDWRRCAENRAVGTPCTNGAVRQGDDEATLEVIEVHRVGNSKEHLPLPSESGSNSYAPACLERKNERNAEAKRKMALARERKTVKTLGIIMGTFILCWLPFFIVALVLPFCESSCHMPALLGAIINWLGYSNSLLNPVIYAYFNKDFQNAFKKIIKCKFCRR
Procedure: Experiment 1: Affinity for Serotonin 1A (^5 KT1A) Receptor [^3 H-8-Hydroxy-2-dipropylaminotetralin (^3-8 -OH-DPTA)-Binding Test].
Preparation of crude synaptosome fraction and binding assay were conducted in accordance with the method reported in Journal of Neurochemistry, vol.
The supernatant was centrifuged at 40,000×g for 20 minutes at 0° C. and the resulting pellet was homogenized in 40 volumes of the above buffer and incubated at 37° C. for 10 minutes.
After completion of reaction, the suspension was centrifuged at 40,000×g for 20 minutes at 0° C. The resulting pellet was washed twice by resuspension in 40 volumes of the above buffer and centrifugation, and finally suspended in 60 volumes of ice-cold 50 mM Tris-HCl buffer (pH 7.4) containing 1 EM manganese chloride for use in the next assay.
To the aliquots (900 μl) of synaptosome membranes solution were added 50 μl of tritiated 8-OH-DPAT solution at the terminal concentration of 0.2 nM and 50 μl of test compound solution or 50 μl of its medium, and incubated at 37° C. for 10 minutes. Then to the mixture were added 5 ml of ice-cold 50 mM Tris-HCl buffer (pH 7.4) rapidly vacuum-filtered through Whatman^R GF/B. filters and was washed twice with 5 ml of the same buffer. The radioactivity of the residue remaining on the filters was measured by liquid scintillation counter. Non specific binding was determined under the presence of 10^-5 M serotonin (5-HT).

5-HT2 receptor = target: T2, 5-HT2 receptor (Rattus norvegicus, UniProt P14842); assay: Affinity for Serotonin 2 (5-HT2) receptor, 3H-Ketanserin binding test (rat cerebral cortex); settings: 3H-Ketanserin 0.2 mM (so in the source), 37° C., 20 minutes, read-out: Binding Profile IC50 5-HT2
T2 construct: Freezed cerebral cortex dissected out from rats were homogenized; from tissue; host or cells: rat cerebral cortex, crude synaptosome membranes
T2 sequence (P14842 whole entry): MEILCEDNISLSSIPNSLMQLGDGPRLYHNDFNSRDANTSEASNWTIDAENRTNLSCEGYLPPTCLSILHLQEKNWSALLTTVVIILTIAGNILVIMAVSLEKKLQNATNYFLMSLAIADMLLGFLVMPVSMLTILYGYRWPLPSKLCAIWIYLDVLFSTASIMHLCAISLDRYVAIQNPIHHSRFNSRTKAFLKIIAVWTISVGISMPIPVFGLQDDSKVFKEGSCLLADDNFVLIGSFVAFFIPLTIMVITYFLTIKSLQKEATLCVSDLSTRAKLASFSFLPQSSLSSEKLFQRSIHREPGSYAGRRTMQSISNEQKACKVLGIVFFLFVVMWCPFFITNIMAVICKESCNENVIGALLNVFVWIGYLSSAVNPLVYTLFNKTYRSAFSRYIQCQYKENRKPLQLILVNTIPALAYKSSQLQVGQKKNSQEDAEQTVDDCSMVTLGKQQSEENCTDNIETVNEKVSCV
Procedure: Experiment 2: Affinity for Serotonin 2(5-HT2) Receptor (^3 H-Ketanserin Binding Test).
Preparation of crude synaptosome fraction and binding assay were conducted according to the method reported in Molecular Pharmacology, vol. 21, page 301, 1981 by Leysen et al.
Freezed cerebral cortex dissected out from rats were homogenized in 30 volumes of ice-cold 0.32M sucrose solution and the suspension was centrifuged at 1000×g for 10 minutes at 0° C. The supernatant was centrifuged at 40,000×g for 20 minutes at 0° C. and the resulting pellets was homogenized in 30 volumes of ice-cold 50 mM Tris-HCl buffer (pH 7.7) and incubated at 37° C. for 10 minutes. The suspension was centrifuged at 40,000×g for 20 minutes at 0° C. again. The resulting pellet was homogenized in 100 volumes of the above buffer and provided as synaptosome membranes solutiofifor the next assay.
To the aliquots (900μ) of synaptosome membranes solution were added 50 μl solution ^3 H-Ketanserin solution at the terminal concentration of 0.2 mM and 50 μl of test compound or its medium, and incubated at 37° C. for 20 minutes. After completion of the reaction, the mixture was rapidly vacuum-filtered through Whatman^R GF/B filters. The filters were washed three times with 5 ml of the above buffer, and then the radioactivity of the residue remaining on the filters was measured by liquid scintillation counter. Non specific binding was determined under the presence of 10 μM of mianserin. 50% inhibition concentration (ICY) of the test compound was graphically determined.

D2 receptor = target: T3, D2 receptor (Rattus norvegicus, UniProt P61169); assay: Affinity for Dopamine 2 (D2) receptor, 3H-Spiperone binding test (rat corpus striatum)
T3 construct: Freezed corpus striatum dissected out from rats were homogenized; from tissue; host or cells: rat corpus striatum, crude synaptosome membranes
T3 sequence (P61169 whole entry): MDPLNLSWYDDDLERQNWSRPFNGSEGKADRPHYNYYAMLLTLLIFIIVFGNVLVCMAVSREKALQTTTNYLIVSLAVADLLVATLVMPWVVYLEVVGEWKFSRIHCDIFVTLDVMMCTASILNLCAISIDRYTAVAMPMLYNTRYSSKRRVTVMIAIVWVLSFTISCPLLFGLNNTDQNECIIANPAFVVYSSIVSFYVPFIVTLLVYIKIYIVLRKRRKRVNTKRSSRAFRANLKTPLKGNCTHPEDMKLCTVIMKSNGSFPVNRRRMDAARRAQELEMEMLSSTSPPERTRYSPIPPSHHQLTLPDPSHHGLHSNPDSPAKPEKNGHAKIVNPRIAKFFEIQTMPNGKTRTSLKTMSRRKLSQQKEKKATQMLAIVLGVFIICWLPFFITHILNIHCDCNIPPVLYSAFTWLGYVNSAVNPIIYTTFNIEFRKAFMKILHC
Procedure: Experiment 3: Affinity for Dopamine 2 (D2) Receptor (^3 H-Spiperone Binding Test).
Preparation of crude synaptosome fraction and binding assays were conducted in accordance with the method reported in European Journal of Pharmacology, vol. 46, page 377, 1977 by I. Creese et al. Freezed corpus striatum dissected out from rats were homogenized in 100 volumes of ice-cold 50 mM Tris-HCl buffer (pH 7.7) and the suspension was centrifuged at 500×g for 10 minutes at 0° C. The supernatant was centrifuged at 50,000×g for 15 minutes at 0° C. and the resulting pellet was homogenized in 100 volumes of the above buffer and then the suspension was centrifuged at 50,000×g for 15 minutes at 0° C. again. The resulting pellet was homogenized in 150 volumes of 50 mM Tris-HCl buffer (pH 7.1) containing 120 mM potassium chloride, 2 mM calcium chloride, 1 mM magnesium chloride, 0.1% ascorbic acid and 10 μM pargyline. The suspension was incubated at 37° C. for 10 minutes and then provided as synaptosome membranes solution for the next assays. To the aliquots (900 μ) of synaptosome membranes solution were added 50 μl of 3H-Spiperone solution at the terminal concentration of 0.2 nM and 50 μl of test compound solution or 50 μl of its medium, and incubated at 37° C. for 20 minutes. After completion of the reaction, the mixture was rapidly vacuum-filtered through WhatmanR GF/B filters. The filters were washed three times with 5 ml of the above buffer, and then the radioactivity of the residue remaining on the filters was measured by liquid scintillation counter. Non specific binding was determined under presence of 100 μM of (L)-Sulpiride 50% inhibition concentration (IC50) of the test compound was graphically determined.

D1 receptor = D1 receptor binding (Binding Profile table)
[1] = 3H-Spiperone 0.2 nM, rat corpus striatum, 37° C., 20 minutes, read-out: Binding Profile IC50 D2
[2] = tritiated 8-OH-DPAT 0.2 nM, rat hippocampus, 37° C., 10 minutes, read-out: Binding Profile IC50 5-HT1A
[3] = read-out: Binding Profile IC50 5-HT1A, tritiated 8-OH-DPAT 0.2 nM, rat hippocampus, 37° C., 10 minutes

Structure (SMILES) | IC50 (D2 receptor; [1]) [nM] | IC50 (5-HT1A receptor; [2]) [nM] | IC50 (5-HT1A receptor) [nM] | IC50 (5-HT2 receptor) [nM] | IC50 (D1 receptor) [nM] | IC50 (D2 receptor) [nM] | IC50 (5-HT1A receptor; [3]) [nM] | IC50 (D2 receptor; read-out: Binding Profile IC50 D2, 3H-Spiperone 0.2 nM, rat corpus striatum, 37° C., 20 minutes) [nM]
C[C@H]1CN(C)[C@@H]2Cc3c[nH]c4cccc(c34)C=C21 [Example 3, 5β(10→9)abeo-9,10-Didehydro-6-methyl-8β-methyl-ergoline] | 940 | – | 6 | 110 | 1850 | – | – | –
CSc1[nH]c2cccc3c2c1C[C@@H]1C(=C3)[C@@H](C)CN1C [Example 5, 5β(10→9)abeo-9,10-Didehydro-2-methylthio-6-methyl-8β-methyl-ergoline] | – | – | 800 | 800 | 2540 | 850 | – | –
C[C@H]1CN(C)[C@@H]2C[C@@H]3CNc4cccc(c43)C=C21 [Example 33, 5β(10→9)abeo-2,3β-Dihydro-9,10-didehydro-6-methyl-8β-methyl-ergoline] | > 10000 | – | – | > 10000 | > 10000 | – | 6 | –
CC(=O)N1C[C@H]2C[C@@H]3C(=Cc4cccc1c42)[C@@H](C)CN3C [Example 34, 5β(10→9)abeo-2,3β-Dihydro-9,10-didehydro-1-acetyl-6-methyl-8β-methyl-ergoline] | 5000 | 100 | – | > 10000 | > 10000 | – | – | –
C[C@H]1CN(C)[C@@H]2C[C@@H]3CNc4ccc(Br)c(c43)C=C21 [Example 39, 5β(10→9)abeo-2,3β-Dihydro-9,10-didehydro-6-methyl-8β-methyl-12-bromo-ergoline] | – | – | 6 | 2080 | 7100 | 130 | – | –
C[C@H]1CN(C)[C@@H]2Cc3c[nH]c4ccc([N+](=O)[O-])c(c34)C=C21 [Example 42, 5β(10→9)abeo-9,10-Didehydro-6-methyl-8β-methyl-14-nitro ergolina] | – | – | – | 1860 | > 10000 | – | 18 | 2000

The next lines start with results.

IC50 (D2 receptor; [1]) [nM] | IC50 (5-HT1A receptor; [2]) [nM] | Structure (SMILES) | IC50 (5-HT1A receptor) [nM] | IC50 (5-HT2 receptor) [nM] | IC50 (D1 receptor) [nM] | IC50 (D2 receptor) [nM] | IC50 (5-HT1A receptor; [3]) [nM] | IC50 (D2 receptor; read-out: Binding Profile IC50 D2, 3H-Spiperone 0.2 nM, rat corpus striatum, 37° C., 20 minutes) [nM]
620 | 330 | C[C@H]1CN(C)[C@@H]2Cc3c(Br)[nH]c4cccc(c34)C=C21 [Example 4, 5β(10→9)abeo-9,10-Didehydro-2-bromo-6-methyl-8β-methyl-ergoline] | – | 1000 | 1920 | – | – | –
6030 | 530 | CC(=O)N1C[C@@H]2C[C@@H]3C(=Cc4cccc1c42)[C@@H](C)CN3C [Example 35, 5β(10→9)abeo-2,3α-Dihydro-9,10-didehydro-1-acetyl-6-methyl-8β-methyl-ergoline] | – | > 10000 | > 10000 | – | – | –
4480 | 100 | C[C@H]1CN(C)[C@@H]2C[C@@H]3CN(C(N)=O)c4cccc(c43)C=C21 [Example 36, 5β(10→9)abeo-2,3β-Dihydro-9,10-didehydro-1-amino-carbonyl-6-methyl-8β-methyl-ergoline] | – | > 10000 | > 10000 | – | – | –
4870 | 3 | C[C@H]1CN(C)[C@@H]2C[C@@H]3CNc4ccc([N+](=O)[O-])c(c43)C=C21 [Example 40, 5β(10→9)abeo-2,3β-Dihydro-9,10-didehydro-6-methyl-8β-methyl-12 nitro-ergoline] | – | 1240 | 2750 | – | – | –
